Source: patent publication US7361665B2, “Inhibitors of c-Jun N-terminal kinases (JNK) and other protein kinases” (Vertex Pharmaceuticals Incorporated, priority 2002, dated 2008)

These compounds were tested against T1, JNK3 (Homo sapiens, UniProt P53779) (assay: JNK inhibition assay (spectrophotometric coupled-enzyme assay)). Settings: activated JNK3 10 nM, 10 μM ATP, 30° C.; read-out: JNK3 Activity (Ki rating).
T1 construct: One such construct encodes amino acid residues Ser40-Glu402 of JNK3α1 and is preceded by Met and Gly residues; Met-Gly dipeptide (initiation Met plus Gly added for the NcoI site) (N); made in house; host or cells: E. coli BL21 (DE3)
T1 sequence (P53779 40-402): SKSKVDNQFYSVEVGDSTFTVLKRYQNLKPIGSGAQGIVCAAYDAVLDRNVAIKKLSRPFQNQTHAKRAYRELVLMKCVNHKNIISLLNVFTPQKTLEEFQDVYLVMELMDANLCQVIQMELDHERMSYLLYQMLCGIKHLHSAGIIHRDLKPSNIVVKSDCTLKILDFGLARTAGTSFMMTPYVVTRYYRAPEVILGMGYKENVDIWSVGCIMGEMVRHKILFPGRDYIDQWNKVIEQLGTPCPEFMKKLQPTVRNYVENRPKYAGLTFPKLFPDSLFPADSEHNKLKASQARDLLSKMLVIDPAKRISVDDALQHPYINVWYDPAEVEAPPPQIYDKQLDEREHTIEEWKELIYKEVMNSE
Assay type: biochemical
Description: A BLAST search of the EST database using the published JNK3α1 cDNA as a query identified an EST clone (#632588) that contained the entire coding sequence for human JNK3α1. Polymerase chain reactions (PCR) using pfu polymerase (Strategene) were used to introduce restriction sites into the cDNA for cloning into the pET-15B expression vector at the NcoI and BamHI sites. The protein was expressed in E. coli. Due to the poor solubility of the expressed full-length protein (Met 1-Gln 422), an N-terminally truncated protein starting at Ser residue at position 40 (Ser 40) was produced. This truncation corresponds to Ser 2 of JNK1 and JNK2 proteins, and is preceded by a methionine (initiation) and a glycine residue. The glycine residue was added in order to introduce an NcoI site for cloning into the expression vector. In addition, systematic C-terminal truncations were performed by PCR to identify a construct that give rise to diffraction-quality crystals. One such construct encodes amino acid residues Ser40-Glu402 of JNK3α1 and is preceded by Met and Gly residues.
Five mg of JNK3 was diluted to 0.5 mg/ml in 50 mM HEPES buffer, pH 7.5, containing 100 mM NaCl, 5 mM DTT, 20 mM MgCl2 and 1 mM ATP. GST-MKK7(DD) was added at a molar ratio of 1:2.5 GST-MKK7:JNK3. After incubation for 30 minutes at 25° C., the reaction mixture was concentrated 5-fold by ultrafiltration in a Centriprep-30 (Amicon, Beverly, Mass.), diluted to 10 ml and an additional 1 mM ATP added. This procedure was repeated three times to remove ADP and replenish ATP. The final addition of ATP was 5 mM and the mixture incubated overnight at 4° C.
The activated JNK3/GST-MKK7(DD) reaction mixture was exchanged into 50 mM HEPES buffer, pH 7.5, containing 5 mM DTT and 5% glycerol (w/v) by dialysis or ultrafiltration. The reaction mixture was adjusted to 1.1 M potassium phosphate, pH 7.5, and purified by hydrophobic interaction chromatography (at 25° C.) using a Rainin Hydropore column. […] Activated JNK3 (i.e. doubly phosphorylated JNK3) was stored at −70° C. at 0.25-1 mg/ml.
Compounds were assayed for the inhibition of JNK3 by a spectrophotometric coupled-enzyme assay. In this assay, a fixed concentration of activated JNK3 (10 nM) was incubated with various concentrations of a potential inhibitor dissolved in DMSO for 10 minutes at 30° C. in a buffer containing 0.1 M HEPES buffer, pH 7.5, containing 10 mM MgCl2, 2.5 mM phosphoenolpyruvate, 200 μM NADH, 150 μg/mL pyruvate kinase, 50 μg/mL lactate dehydrogenase, and 200 μM EGF receptor peptide. The EGF receptor peptide has the sequence […] (SEQ ID NO: 3), and is a phosphoryl acceptor in the JNK3-catalyzed kinase reaction. The reaction was initiated by the addition of 10 μM ATP and the assay plate is inserted into the spectrophotometer's assay plate compartment that was maintained at 30° C. The decrease of absorbance at 340 nm was monitored as a function of time. The rate data as a function of inhibitor concentration was fitted to competitive inhibition kinetic model to determine the Ki.
The compound numbers correspond to the compound numbers in Tables 1-3.
For `COCn1c(-c2ccnc(Nc3ccc(F)cc3)n2)cnc1-c1ccccc1` [IIa-11], the Ki was > 1000 nM.
In the case of `COCn1c(-c2ccnc(Nc3ccccc3)n2)cnc1-c1ccccc1` [IIa-12], the Ki is reported as > 1000 nM.
With `COCn1c(-c2ccnc(Nc3ccc([N+](=O)[O-])cc3)n2)cnc1-c1ccccc1` [IIa-13] the Ki was > 1000 nM.
`COCn1c(-c2ccnc(Nc3cc(OC)cc(OC)c3)n2)cnc1-c1ccccc1` [IIa-15] was tested, and the Ki was > 1000 nM.
`COCn1c(-c2ccnc(Nc3cccc(Br)c3)n2)cnc1-c1ccccc1` [IIa-16] was tested, and the Ki was > 1000 nM.
In the case of `COCn1c(-c2ccnc(Nc3cccc(OCc4ccccc4)c3)n2)cnc1-c1ccccc1` [IIa-17], the Ki is reported as > 1000 nM.
In the case of `COc1cccc(Nc2nccc(-c3cnc(-c4cccnc4)n3C)n2)c1` [IIa-18], the Ki is reported as 100 to 1000 nM.
For `COc1cc(Nc2nccc(-c3cnc(-c4cccnc4)n3C)n2)cc(OC)c1` [IIa-19], the Ki was 100 to 1000 nM.
For `Cn1c(-c2ccnc(Nc3cccc(Br)c3)n2)cnc1-c1cccnc1` [IIa-20], the Ki was 100 to 1000 nM.
In the case of `Cn1c(-c2ccnc(Nc3ccc([N+](=O)[O-])cc3)n2)cnc1-c1cccnc1` [IIa-21], the Ki is reported as 100 to 1000 nM.
In the case of `COC(=O)c1cccc(Nc2nccc(-c3cnc(-c4cccnc4)n3C)n2)c1` [IIa-22], the Ki is reported as 100 to 1000 nM.
`Clc1ccc(Nc2nccc(-c3cnc(Cc4c(Cl)cccc4Cl)[nH]3)n2)cc1` [IIa-23] gave a Ki of 100 to 1000 nM.
With `COc1cccc(Nc2nccc(-c3cnc(Cc4c(Cl)cccc4Cl)[nH]3)n2)c1` [IIa-25] the Ki was < 100 nM.
`COc1cc(Nc2nccc(-c3cnc(Cc4c(Cl)cccc4Cl)[nH]3)n2)cc(OC)c1` [IIa-26] was tested, and the Ki was 100 to 1000 nM.
With `Clc1cccc(Cl)c1Cc1ncc(-c2ccnc(Nc3cccc(Br)c3)n2)[nH]1` [IIa-27] the Ki was 100 to 1000 nM.
`Clc1cccc(Cl)c1Cc1ncc(-c2ccnc(Nc3ccccc3)n2)[nH]1` [IIa-28] gave a Ki of 100 to 1000 nM.
Compound `Clc1cccc(Cl)c1Cc1ncc(-c2ccnc(Nc3cccc(OCc4ccccc4)c3)n2)[nH]1` [IIa-29] has a Ki of 100 to 1000 nM.
In the case of `O=[N+]([O-])c1ccc(Nc2nccc(-c3cnc(Cc4c(Cl)cccc4Cl)[nH]3)n2)cc1` [IIa-30], the Ki is reported as 100 to 1000 nM.
`COC(=O)c1cccc(Nc2nccc(-c3cnc(Cc4c(Cl)cccc4Cl)[nH]3)n2)c1` [IIa-31] was tested, and the Ki was 100 to 1000 nM.
With `Clc1ccc(Nc2nccc(-c3cnc(Cc4c(Cl)cccc4Cl)[nH]3)n2)cn1` [IIa-32] the Ki was 100 to 1000 nM.
In the case of `Clc1ccc(Nc2nccc(-c3cnc(-c4ccccc4)o3)n2)cc1` [IIb-1, (4-Chloro-phenyl)-[4-(2-phenyl-oxazol-5-yl)-pyrimidin-2yl]-amine], the Ki is reported as > 1000 nM.
Work on `Fc1ccc(Nc2nccc(-c3cnc(-c4ccccc4)o3)n2)cc1` [IIb-2] yielded a Ki of 100 to 1000 nM.
With `COc1cccc(Nc2nccc(-c3cnc(-c4ccccc4)o3)n2)c1` [IIb-3] the Ki was 100 to 1000 nM.
Work on `COc1cc(Nc2nccc(-c3cnc(-c4ccccc4)o3)n2)cc(OC)c1` [IIb-4] yielded a Ki of 100 to 1000 nM.
`c1ccc(Nc2nccc(-c3cnc(-c4ccccc4)o3)n2)cc1` [IIb-5] gave a Ki of 100 to 1000 nM.
In the case of `c1ccc(COc2cccc(Nc3nccc(-c4cnc(-c5ccccc5)o4)n3)c2)cc1` [IIb-6], the Ki is reported as 100 to 1000 nM.
Compound `O=[N+]([O-])c1ccc(Nc2nccc(-c3cnc(-c4ccccc4)o3)n2)cc1` [IIb-7] has a Ki of 100 to 1000 nM.
With `Cc1nc(-c2cccs2)sc1-c1ccnc(Nc2ccc(Cl)cc2)n1` [IIc-24] the Ki was > 1000 nM.
In the case of `Cc1nc(-c2cccs2)sc1-c1ccnc(Nc2ccc([N+](=O)[O-])cc2)n1` [IIc-25], the Ki is reported as > 1000 nM.
